Data: patent US9187429B2, “Phenyl-tetrahydroisoquinoline derivatives” (Hoffmann-La Roche Inc., priority 2012, dated 2015)

What was measured:
human CYP11B1 = human CYP11B1 (Homo sapiens (Human), UniProt P15538); test: G-402 cellular enzyme assay, human CYP11B1 (cortisol release); assay type: cell-based; details: G-402 cells expressing human CYP11B1, 1 μM Deoxycortisol
Source text: (§1) The expression plasmids contains the ORF for either human/cyno CYP11B1 or CYP11B2 under the control of a suitable promoter (CMV-promoter) and a suitable resistance marker (neomycin). Using standard techniques the expression plasmid is transfected into G-402 cells and these cells are then selected for expressing the given resistance markers. Individual cell-clones are then selected and assessed for displaying the desired enzymatic activity using 11-Deoxycorticosterone (Cyp 11B2) or 11-Deoxycortisol (Cyp 11B1) as a substrate.
(§2) G-402 cells expressing CYP11 constructs were established as described above and maintained in McCoy's 5a Medium Modified, ATCC Catalog No. 30-2007 containing 10% FCS and 400 μg/ml G418 (Geneticin) at 37° C. under an atmosphere of 5% CO2/95% air. […] For assaying enzymatic activity, cells were plated onto 96 well plates and incubated for 16 h. An aliquot of the supernatant is then transferred and analyzed for the concentration of the expected product (Aldosterone for CYP11B2; Cortisol for CYP11B1). The concentrations of these steroids can be determined using HTRF assays from CisBio analyzing either Aldosterone or Cortisol.
(§3) Inhibition of the release of produced steroids can be used as a measure of the respective enzyme inhibition by test compounds added during the cellular enzyme assay. The dose dependent inhibition of enzymatic activity by a compound is calculated by means of plotting added inhibitor concentrations (x-axes) vs. measured steroid/product level (y-axes). The inhibition is then calculated by fitting the following 4-parameter sigmoidal function (Morgan-Mercer-Flodin (MMF) model) to the raw data points using the least squares method:
(§4) [formula] wherein, A is the maximum y value, B is the EC50 factor determined using XLFit, C is the minimum y value and D is the slope value.
(§5) EC50 values for compounds claimed herein were tested with the G402-based assay system described. Cyp 11B2 enzyme activity was tested in presence of 1 μM Deoxycorticosterone and variable amounts of inhibitors; Cyp 11B1 enzyme activity was tested in presence of 1 μM Deoxycortisol and variable amounts of inhibitors.

CYP11B2 = CYP11B2 (Homo sapiens (Human), UniProt P19099); test: G-402 cellular enzyme assay, human CYP11B2 (aldosterone release); assay type: cell-based; details: G-402 cells expressing human CYP11B2, 1 μM Deoxycorticosterone
Sequence of CYP11B2 (P19099 25-503): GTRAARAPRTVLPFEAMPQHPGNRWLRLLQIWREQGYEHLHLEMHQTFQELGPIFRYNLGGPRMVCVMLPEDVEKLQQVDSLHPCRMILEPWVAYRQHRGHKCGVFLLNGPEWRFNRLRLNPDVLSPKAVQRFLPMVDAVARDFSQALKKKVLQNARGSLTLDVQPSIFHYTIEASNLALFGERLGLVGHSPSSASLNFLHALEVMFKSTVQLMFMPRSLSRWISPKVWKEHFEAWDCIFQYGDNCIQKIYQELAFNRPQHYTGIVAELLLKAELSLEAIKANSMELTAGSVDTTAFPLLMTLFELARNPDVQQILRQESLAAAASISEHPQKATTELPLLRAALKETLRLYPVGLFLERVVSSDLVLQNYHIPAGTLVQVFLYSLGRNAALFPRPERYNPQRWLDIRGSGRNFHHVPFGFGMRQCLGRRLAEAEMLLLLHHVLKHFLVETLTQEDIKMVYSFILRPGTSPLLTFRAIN
Source text: as §1, §2, §3, §4, §5

Sequence of human CYP11B1 (P15538 25-503): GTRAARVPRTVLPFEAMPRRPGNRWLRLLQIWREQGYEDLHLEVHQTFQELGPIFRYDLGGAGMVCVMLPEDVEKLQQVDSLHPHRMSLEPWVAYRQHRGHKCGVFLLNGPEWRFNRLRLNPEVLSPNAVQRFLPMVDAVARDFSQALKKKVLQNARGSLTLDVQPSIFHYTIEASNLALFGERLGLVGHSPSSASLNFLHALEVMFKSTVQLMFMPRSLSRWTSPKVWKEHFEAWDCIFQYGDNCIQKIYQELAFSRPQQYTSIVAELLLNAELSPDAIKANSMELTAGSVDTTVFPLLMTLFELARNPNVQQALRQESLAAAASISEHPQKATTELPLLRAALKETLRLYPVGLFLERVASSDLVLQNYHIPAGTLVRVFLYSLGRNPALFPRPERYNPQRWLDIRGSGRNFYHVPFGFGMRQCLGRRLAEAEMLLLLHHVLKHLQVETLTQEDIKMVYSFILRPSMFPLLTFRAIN

Structure (SMILES) | EC50 (human CYP11B1) | EC50 (CYP11B2)
CCC(=O)NC1CCCc2c(-c3ccc(C(F)(F)F)cc3)cncc21 (single isomer, unassigned; (-)) [Example 22, (−)-(S or R)—N-(4-(4-(Trifluoromethyl)phenyl)-5,6,7,8-tetrahydroisoquinolin-8-yl)propionamide] |  | 6380 nM
Cc1ccc(C2(O)CCCc3c(-c4ccc(C#N)cc4)cncc32)cc1C (single isomer, unassigned; (-)) [Example 16, (−)-(R or S)-4-(8-(3,4-Dimethylphenyl)-8-hydroxy-5,6,7,8-tetrahydroisoquinolin-4-yl)benzonitrile] | 488 nM | 72 nM
CS(=O)(=O)N[C@@H]1CCCc2c(-c3ccc(C(F)(F)F)cc3F)cncc21 [Example 76, (+)-(R)—N-(4-(2-Fluoro-4-(trifluoromethyl)phenyl)-5,6,7,8-tetrahydroisoquinolin-8-yl)methanesulfonamide] | 23200 nM | 118 nM
CCC(=O)N[C@@H]1CCCc2c(-c3ccc(C(F)(F)F)cc3C3CC3)cncc21 [Example 107, (R)—N-(4-(2-Cyclopropyl-4-(trifluoromethyl)phenyl)-5,6,7,8-tetrahydroisoquinolin-8-yl)propionamide] | 7830 nM | 964 nM
CCCNS(=O)(=O)NC1CCCc2c(-c3ccc(C#N)cc3)cncc21 (racemic) [Example 3, (rac)-N-[4-(4-Cyanophenyl)-5,6,7,8-tetrahydroisoquinolin-8-yl]-N′-propylsulfuric diamide] | 291 nM | 52 nM
CCS(=O)(=O)NC1CCCc2c(-c3ccc(C#N)cc3)cncc21 (racemic) [Example 2, (rac)-N-(4-(4-Cyanophenyl)-5,6,7,8-tetrahydroisoquinolin-8-yl)ethanesulfonamide] | 1090 nM | 207 nM
CCC(=O)NC1CCCc2c(-c3ccc(Cl)cc3F)cncc21 (single isomer, unassigned; (-)) [Example 31, (−)-(S or R)—N-(4-(4-Chloro-2-fluorophenyl)-5,6,7,8-tetrahydroisoquinolin-8-yl)propionamide] |  | 1220 nM
C[C@@H](O)C(=O)NC1CCCc2c(-c3ccc(C(F)(F)F)cc3)cncc21 (stereo partly drawn) [Example 46, (R)-2-Hydroxy-N—[(S,R)-4-(4-trifluoromethyl-phenyl)-5,6,7,8-tetrahydro-isoquinolin-8-yl]-propionamide] | 3760 nM | 160 nM
CCC(=O)NC1CCc2c(-c3ccc(C(F)(F)F)cc3)cncc21 (single isomer, unassigned; (-)) [Example 50, (−)-(S or R)—N-(4-(4-(Trifluoromethyl)phenyl)-6,7-dihydro-5H-cyclopenta[c]pyridin-7-yl)propionamide] |  | 5770 nM
CCS(=O)(=O)NC1CCc2c(-c3ccc(C(F)(F)F)c(F)c3)cncc21 (single isomer, unassigned; (-)) [Example 72, (−)-(S or R)—N-(4-(3-Fluoro-4-(trifluoromethyl)phenyl)-6,7-dihydro-5H-cyclopenta[c]pyridin-7-yl)ethanesulfonamide] |  | 16500 nM
CCC(=O)NC1CCCc2c(-c3ccc(C#N)cc3)cncc21 (single isomer, unassigned; (-)) [Example 6, (−)-(S or R)—N-(4-(4-Cyanophenyl)-5,6,7,8-tetrahydroisoquinolin-8-yl)propionamide] | 11700 nM | 
CCC(=O)NC1CCCc2c(-c3ccc(C#N)cc3)cncc21 (racemic) [Example 5, (rac)-N-(4-(4-Cyanophenyl)-5,6,7,8-tetrahydroisoquinolin-8-yl)propionamide] | 760 nM | 
C[C@@H](O)C(=O)NC1CCc2c(-c3ccc(C(F)(F)F)cc3)cncc21 (single isomer, unassigned; (-)) [Example 53, (−)-(R)-2-Hydroxy-N—((S or R)-4-(4-(trifluoromethyl)phenyl)-6,7-dihydro-5H-cyclopenta[c]pyridin-7-yl)propanamide] |  | 9100 nM
C[C@@H](O)C(=O)NC1CCCc2c(-c3ccc(C(F)(F)F)cc3)cncc21 (single isomer, unassigned; (+)) [Example 47, (+)-(R)-2-Hydroxy-N—[(R or S)-4-(4-trifluoromethyl-phenyl)-5,6,7,8-tetrahydro-isoquinolin-8-yl]-propionamide] |  | 5750 nM
CCC(=O)NC1CCc2c(-c3ccc(F)c(C)c3)cncc21 (single isomer, unassigned; (-)) [Example 59, (−)-(S or R)—N-(4-(4-Fluoro-3-methylphenyl)-6,7-dihydro-5H-cyclopenta[c]pyridin-7-yl)propionamide] |  | 1660 nM
CCC(=O)NC1CCCc2c(-c3ccc(C#N)cc3)cncc21 (single isomer, unassigned; (+)) [Example 7, (+)-(R or S)—N-(4-(4-Cyanophenyl)-5,6,7,8-tetrahydroisoquinolin-8-yl)propionamide] | 263 nM | 

Further lines, results first:

EC50 (human CYP11B1) | EC50 (CYP11B2) | Structure (SMILES)
1720 nM | 30 nM | CCC(=O)NC1CCc2c(-c3ccc(C(F)(F)F)cc3F)cncc21 (single isomer, unassigned; (+)) [Example 63, (+)-(R or S)—N-(4-(2-Fluoro-4-(trifluoromethyl)phenyl)-6,7-dihydro-5H-cyclopenta[c]pyridin-7-yl)propionamide]
826 nM | 47 nM | CCC(=O)NC1CCCc2c(-c3ccc(F)c(F)c3)cncc21 (racemic) [Example 44, (rac)-N-(4-(3,4-Difluorophenyl)-5,6,7,8-tetrahydroisoquinolin-8-yl)propionamide]
184 nM | 12 nM | CCC(=O)NC1CCc2c(-c3ccc(Cl)c(F)c3)cncc21 (racemic) [Example 55, (rac)-N-(4-(4-Chloro-3-fluorophenyl)-6,7-dihydro-5H-cyclopenta[c]pyridin-7-yl)propionamide]
617 nM | 19 nM | CCC(=O)NC1CCCc2c(-c3ccc(Cl)cc3F)cncc21 (single isomer, unassigned; (+)) [Example 32, (+)-(R or S)—N-(4-(4-Chloro-2-fluorophenyl)-5,6,7,8-tetrahydroisoquinolin-8-yl)propionamide]
1500 nM | 28 nM | CCC(=O)NC1CCCc2c(-c3ccc(Cl)cc3F)cncc21 (racemic) [Example 30, (rac)-N-(4-(4-Chloro-2-fluorophenyl)-5,6,7,8-tetrahydroisoquinolin-8-yl)propionamide]
12 nM | 1.3 nM | N#Cc1ccc(-c2cncc3c2CCC3O)cc1 (racemic) [Example 81, (rac)-4-(7-Hydroxy-6,7-dihydro-5H-cyclopenta[c]pyridin-4-yl)benzonitrile]
30 nM | 25 nM | CCNC(=O)OC1CCCc2c(-c3ccc(C#N)cc3)cncc21 (racemic) [Example 12, (rac)-4-(4-Cyanophenyl)-5,6,7,8-tetrahydroisoquinolin-8-yl ethylcarbamate]
3610 nM | 44 nM | CCC(=O)NC1CCc2c(-c3ccc(C(F)(F)F)cc3F)cncc21 (racemic) [Example 61, (rac)-N-(4-(2-Fluoro-4-(trifluoromethyl)phenyl)-6,7-dihydro-5H-cyclopenta[c]pyridin-7-yl)propionamide]
710 nM | 14.6 nM | OC1CCCc2c(-c3ccc(C(F)(F)F)cc3)cncc21 (racemic) [Example 104, (rac)-4-(4-(Trifluoromethyl)phenyl)-5,6,7,8-tetrahydroisoquinolin-8-ol]
64 nM | 2 nM | CCC(=O)NC1CCc2c(-c3ccc(F)c(C)c3)cncc21 (single isomer, unassigned; (+)) [Example 60, (+)-(R or S)—N-(4-(4-Fluoro-3-methylphenyl)-6,7-dihydro-5H-cyclopenta[c]pyridin-7-yl)propionamide]
5 nM | 4.8 nM | CC1(O)CCc2c(-c3ccc(C(F)(F)F)cc3)cncc21 (racemic) [Example 84, (rac)-7-Methyl-4-(4-(trifluoromethyl)phenyl)-6,7-dihydro-5H-cyclopenta[c]pyridin-7-ol]
71 nM | 5.2 nM | OC1CCc2c(-c3ccc(C(F)(F)F)c(F)c3)cncc21 (racemic) [Example 82, (rac)-4-(3-Fluoro-4-(trifluoromethyl)phenyl)-6,7-dihydro-5H-cyclopenta[c]pyridin-7-ol]
1900 nM | 26.7 nM | CCC(=O)NC1CCc2c(-c3ccc(C(F)(F)F)c(F)c3)cncc21 (racemic) [Example 90, (rac)-N-(4-(3-Fluoro-4-(trifluoromethyl)phenyl)-6,7-dihydro-5H-cyclopenta[c]pyridin-7-yl)propionamide]
1150 nM | 27 nM | CCC(=O)NC1CCCc2c(-c3cc(F)c(F)cc3F)cncc21 (racemic) [Example 43, (rac)-N-(4-(2,4,5-Trifluorophenyl)-5,6,7,8-tetrahydroisoquinolin-8-yl)propionamide]
